Read-outs that look alike come from different tables or passages of the source.
Tests used:
[1] = biological target: T1, CYP2C19 (Homo sapiens, UniProt P33261); format: in vitro ADME; settings: S-Mephenytoin 4′-hydroxylase, 5 mM
T1 construct: from tissue; host or cells: human liver microsomes

[2] = tested on: CYP3A4/5; format: in vitro ADME, human; settings: 5 mM
[3] = Safety and tolerability of RAVICTI co-administered with celecoxib; format: in vivo, human
Method: (§1) Safety: Safety and tolerability were assessed through adverse events (AEs), clinical laboratory results, physical examination findings, vital sign measurements, and electrocardiograms (ECGs).
(§2) Safety: Safety data were summarized by treatment and time point. Descriptive statistics (mean, standard deviation [SD], minimum, median, maximum, and sample size [N]) were calculated for quantitative safety data and frequency counts were compiled for classification of qualitative safety data. AE verbatim terms were mapped to preferred terms and system organ classes using the Medical Dictionary for Regulatory Activities (MedDRA®) (Version 18.0). Concomitant medications were coded with the World Health Organization (WHO) Dictionary version 1Mar. 2015.

[4] = Safety and tolerability of RAVICTI coadministered with midazolam; format: in vivo, human
Method: as §1
as §2, with “16.1).” for “18.0).”, “2013.” for “2015.”

[5] = RAVICTI co-administered with celecoxib, 28 healthy subjects
[6] = RAVICTI coadministered with midazolam, 24 healthy subjects

T1 sequence (P33261 whole entry): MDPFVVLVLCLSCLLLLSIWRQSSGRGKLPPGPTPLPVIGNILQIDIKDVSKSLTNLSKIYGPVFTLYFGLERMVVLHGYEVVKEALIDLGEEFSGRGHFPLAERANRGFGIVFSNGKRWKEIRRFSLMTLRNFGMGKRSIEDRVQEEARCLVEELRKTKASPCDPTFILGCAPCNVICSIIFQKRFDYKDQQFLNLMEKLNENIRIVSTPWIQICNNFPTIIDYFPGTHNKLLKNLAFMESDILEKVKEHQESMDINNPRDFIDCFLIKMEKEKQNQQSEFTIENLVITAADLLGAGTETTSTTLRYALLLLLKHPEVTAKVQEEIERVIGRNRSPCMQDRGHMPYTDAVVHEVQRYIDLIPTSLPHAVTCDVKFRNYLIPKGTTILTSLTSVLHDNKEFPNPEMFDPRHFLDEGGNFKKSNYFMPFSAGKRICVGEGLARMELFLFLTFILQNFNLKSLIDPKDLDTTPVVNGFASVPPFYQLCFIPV

For O=C(CCCc1ccccc1)OCC(COC(=O)CCCc1ccccc1)OC(=O)CCCc1ccccc1 [RAVICTI, benzenebutanoic acid, 1′,1″-(1,2,3-propanetriyl) ester], the “% Inhibition” value ([1]; pre-incubation time 0 min) was 8%, the “% Inhibition” value ([1]; pre-incubation time 30 min) was 7% and the “% Inhibition” value ([2]; Midazolam 1′-hydroxylase, pre-incubation time 0 min) was 19%. The “% Inhibition” value ([2]; Midazolam 1′-hydroxylase, pre-incubation time 30 min) was 24%, the “% Inhibition” value ([2]; Testosterone 6β-hydroxylase, pre-incubation time 0 min) was 15% and the “% Inhibition” value ([2]; Testosterone 6β-hydroxylase, pre-incubation time 30 min) was 6%. For the same compound, the “deaths, SAEs, discontinuations due to AEs” value [3, 5] was “no deaths, SAEs, or subject discontinuations due to AEs”, the “subjects experiencing TEAEs” value [3, 5] was 8 subjects and the “total TEAEs” value [3, 5] was 23. For the same compound, the “safety and tolerability (conclusion)” value ([3]; oral RAVICTI co-administered with celecoxib, healthy adults) was “safe and generally well tolerated”, the “deaths, SAEs, discontinuations due to AEs” value [4, 6] was “no deaths, serious adverse events (SAEs), or subject discontinuations due to AEs” and the “subjects experiencing TEAEs” value [4, 6] was 6 subjects. For the same compound, the “total TEAEs” value [4, 6] was 10 and the “safety and tolerability (conclusion)” value ([4]; oral RAVICTI coadministered with midazolam, healthy adults) was “safe and generally well tolerated”.

— US20190076384A1, “METHODS FOR TREATING UREA CYCLE DISORDERS” (priority 2017, published 2019)
